In PubChem BioAssay (NCI):
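Cultured in 96-well plates, cells were exposed to test compound for 48 hours across five concentrations. GI50: concentration for 50% inhibition of growth. TGI: concentration producing complete growth inhibition.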

Tests used:
Assay in all cases: DTP human tumour cell line panel, 48 h
SF-268 CNS = system: SF-268 CNS
HL-60(TB) leukemia = system: HL-60(TB) leukemia
NCI-H226 lung = system: NCI-H226 lung
NCI-H522 lung = system: NCI-H522 lung
CAKI-1 renal = system: CAKI-1 renal
HOP-62 NSCLC = system: HOP-62 NSCLC
SNB-19 CNS = system: SNB-19 CNS
HCC-2998 colon = system: HCC-2998 colon
SK-MEL-2 melanoma = system: SK-MEL-2 melanoma
SNB-75 CNS = system: SNB-75 CNS

| SMILES | GI50 (SF-268 CNS) [µM] | TGI (SF-268 CNS) [µM] | GI50 (HL-60(TB) leukemia) [µM] | TGI (HL-60(TB) leukemia) [µM] | GI50 (NCI-H226 lung) [µM] | TGI (NCI-H226 lung) [µM] | GI50 (NCI-H522 lung) [µM] | TGI (NCI-H522 lung) [µM] | GI50 (CAKI-1 renal) [µM] | TGI (CAKI-1 renal) [µM] | GI50 (HOP-62 NSCLC) [µM] | TGI (HOP-62 NSCLC) [µM] | GI50 (SNB-19 CNS) [µM] | TGI (SNB-19 CNS) [µM] | GI50 (HCC-2998 colon) [µM] | TGI (HCC-2998 colon) [µM] | GI50 (SK-MEL-2 melanoma) [µM] | TGI (SK-MEL-2 melanoma) [µM] | GI50 (SNB-75 CNS) [µM] | TGI (SNB-75 CNS) [µM] |
| --- | --- | --- | --- | --- | --- | --- | --- | --- | --- | --- | --- | --- | --- | --- | --- | --- | --- | --- | --- | --- |
| COc1cc(-c2cc3ncccc3c3nc(N)c4cccnc4c23)cc(OC)c1OC | 0.752 | > 100 | 0.217 | 0.717 | 16.8 | > 100 | 0.0576 | 12 | 0.4 | 22.6 | 0.599 | 87.1 | 0.737 | > 100 | 1.66 | > 100 | 0.533 | 8.86 |  |  |
| Cc1cc(S(=O)(=O)Nc2nc3cscc3c(=O)n2Cc2ccccc2)c(S)cc1Cl | 31 | > 100 | 44.1 | > 100 | 60.1 | > 100 | 81.6 | > 100 | 45.4 | > 100 | 16.5 | 39.3 | 29.1 | > 100 | 18.9 | 68.5 |  |  | > 100 | > 100 |
| COC(=O)N(C(=O)OC)C(C(=O)O)C(C)C (stereo unspecified) |  | > 100 |  | > 100 |  | > 100 |  | > 100 |  | > 100 |  | > 100 |  | > 100 |  | > 100 |  | > 100 |  | > 100 |
